{
  "source": "patent US9539176B2",
  "about": "(BAYER PHARMA AKTIENGESELLSCHAFT, priority 2012, dated 2017)",
  "test": "comparative stress test of the active coating suspension (60° C., 48 hours, HPLC)",
  "assay_type": "physicochemical",
  "method": "The chemical stability of the coating suspension was verified by a comparative stress test: micronized candersartan cilexetil as a solid, an aqueous suspension of micronized candesartan cilexetil, and aqueous suspensions of micronized candesartan cilexetil together with Opadry II 85F19250 Clear in three different ratios were stored at 60° C. for 48 hours. The percentage of the stability indicating impurity Desethyl-Candesartan cilexetil was determined via HPLC. The same batch of micronized candesartan cilexetil has been used for all samples.",
  "data": [
    {"smiles": "CCOc1nc2cccc(C(=O)OC(C)OC(=O)OC3CCCCC3)c2n1Cc1ccc(-c2ccccc2-c2nnn[nH]2)cc1", "note": "(centres unmarked) [micronized candesartan cilexetil (solid), candesartan cilexetil]", "values": [
      {"measurement": "Desethyl-Candesartan cilexetil, start", "setting": "start, before storage", "value": 0.11, "unit": "%"},
      {"measurement": "Desethyl-Candesartan cilexetil, 48 hours", "setting": "stored at 60° C. for 48 hours", "value": 0.41, "unit": "%"}
    ]}
  ]
}
